Literature values in PMC10994248 (The Oncologist, 2024).

Test system: FGFR2 fusion or rearranged cholangiocarcinoma
Settings: after failure of first-line chemotherapy ref 20-22; cited from earlier work

| SMILES | Objective response rate |
| --- | --- |
| CCN1CCN(c2ccc(Nc3cc(N(C)C(=O)Nc4c(Cl)c(OC)cc(OC)c4Cl)ncn3)cc2)CC1 [infigratinib] | 23% |
| CCN1C(=O)N(c2c(F)c(OC)cc(OC)c2F)Cc2cnc3[nH]c(CN4CCOCC4)cc3c21 [pemigatinib] | 36% |
